Where two headings read alike, the source gives them in different places.
Assays:
[1] = target: hLPAR1 (human lysophosphatidic acid receptor 1) (Homo sapiens, UniProt Q92633); assay: FLIPR assay of intracellular calcium increase induced by activation of hLPAR1 expressed in CHO-K1 cells; type: cell-based; conditions: CHO-K1 cells expressing hLPAR1, agonist oleoyl-L-α-lysophosphatidic acid 1 μM
Procedure: The antagonist property of the compounds disclosed herein was determined using the FLIPR (fluorescence imaging plate reader) method, wherein the compounds are inhibitors for the intracellular calcium increase induced by activation of hLPAR1 (human lysophosphatidic acid receptor 1, accession No. NM_001401.4) expressed in CHO-K1 cells (Chinese hamster ovary cells K1, ATCC).
Cells at 250,000 cells/mL were seeded into a 96-well plate (25,000 cells/well) 18-24 h prior to the FLIPR experiment and then incubated overnight in a cell incubator. […] Each well was added with 75 μL of […] Fluo-4 AM fluorescent dye (Thermo, F14202) and then the cells were subjected to dye-loading incubation at 37° C. for 1.0 h. The 96-well plate was then washed once with buffer, added with a buffer containing a test compound or a vehicle at 50 μL per well and then incubated for 30 min at room temperature. […] An agonist (oleoyl-L-α-lysophosphatidic acid sodium salt (Sigma, L7260)) at a final concentration of 1 μM or a vehicle (ultrapure water) was then added at 50 μL/well, fluorescence values were measured for 2 min at 1-second intervals, and finally the output fluorescence counts were analyzed.

[2] = test system: A2058 (human melanoma cells); assay: A2058 cell scratch (migration) assay with LPA; type: cell-based; conditions: 10 μM LPA, scratch area at 24 h
Procedure: The activity of the compounds disclosed herein at the cell level in vitro is evaluated by A2058 (human melanoma cells, Beina Bio, BNCC341099) cell scratch assay. The inhibitory activity of the compounds against LPAR1 can be reflected by inhibition of cell scratch healing.
After the cell confluence reached 80%, the cell culture plate was taken out and the original medium was discarded. Serum-free medium was then added, and the cells were starved overnight in an incubator (37° C., 5% CO2). The cell culture plate was then taken out, and cell scratches were made along the diameter of the wells using a 200 μL pipette tip. The cell culture plate was then added with 500 μL of serum-free medium and then shaken gently to wash away the residual cells on the scratched surface, and this was repeated twice. The medium was discarded and 500 μL of 1% FBS medium containing the compound was then added, and the mixture was incubated at 37° C. for 30 min. […] Olympus CKX53 was used to observe the scratches, and MShot image analysis system was used to take pictures and measure the scratch area at 0 h. The plate was incubated in the incubator under the conditions of 37° C. and 5% CO2. 24 h later, the scratches were observed again with Olympus CKX53, and MShot image analysis system was used to take pictures and measure the scratch area at 24 h. Cell migration inhibition rate was calculated according to the following formula: […]

Chain of hLPAR1 (human lysophosphatidic acid receptor 1) (Q92633 whole entry): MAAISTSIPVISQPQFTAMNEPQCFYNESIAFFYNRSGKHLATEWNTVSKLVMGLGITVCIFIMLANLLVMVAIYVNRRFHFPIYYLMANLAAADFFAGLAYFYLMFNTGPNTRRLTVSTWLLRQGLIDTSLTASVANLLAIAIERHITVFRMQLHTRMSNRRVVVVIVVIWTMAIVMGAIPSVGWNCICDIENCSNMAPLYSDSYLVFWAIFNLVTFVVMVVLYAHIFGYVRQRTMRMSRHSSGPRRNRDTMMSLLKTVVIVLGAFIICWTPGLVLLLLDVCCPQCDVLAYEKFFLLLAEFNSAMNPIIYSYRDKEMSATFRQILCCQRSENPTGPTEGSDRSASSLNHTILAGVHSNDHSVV

IC50 ([1]; read-out: LPAR1 IC50) [µM]	SMILES	Cell migration inhibition rate (%) [2]	IC50 ([1]; LPAR1 IC50 (μM)) [µM]
0.3 to 10	Cc1nc(-c2cnn(C)c2COC(=O)N2CC3CCC2CO3)ccc1O[C@H]1CCC[C@H](C(=O)O)C1 (mixture of isomers) [Compound 96]		
0.3 to 10	Cc1nc(-c2cnn(C)c2COC(=O)N(C)C2COC2)ccc1O[C@H]1CCC[C@H](C(=O)O)C1 (racemic) [Compound 64, (+/−)-(1S,3S)-3-((2-methyl-6-(1-methyl-5-(((methyl(oxetan-3-yl)carbamoyl)oxy)methyl)-1H-pyrazol-4-yl)pyridin-3-yl)oxy)cyclohexane-1-carboxylic Acid]	C (C: 0-30%)	
0.3 to 10	CN(Cc1ccccc1)C(=O)OCc1oncc1-c1ccc(O[C@H]2CCC[C@H](C(=O)O)C2)cc1 (racemic) [Compound 68]		
0.3 to 10	CN(C(=O)OCc1oncc1-c1ccc(O[C@H]2CCC[C@H](C(=O)O)C2)cc1)C1CCCC1 (racemic) [Compound 72]		
0.3 to 10	CN(C(=O)OCc1cnncc1-c1ccc(O[C@H]2CCC[C@H](C(=O)O)C2)cc1)C1CCCC1 (racemic) [Compound 74]		
0.3 to 10	CN(C(=O)OCc1cncnc1-c1ccc(O[C@H]2CCC[C@H](C(=O)O)C2)cc1)C1CCCC1 (racemic) [Compound 76]		
< 0.05	CN(CC1CCCC1)C(=O)OCc1c(-c2ccc(O[C@H]3CCC[C@H](C(=O)O)C3)c(F)n2)cnn1C (racemic) [Compound 77]		
< 0.05	Cc1onc(-c2ccc(O[C@H]3CCC[C@H](C(=O)O)C3)cn2)c1COC(=O)N(C)C1CCCC1 (racemic) [Compound 79]		
0.05 to 0.3	Cc1snc(-c2ccc(O[C@H]3CCC[C@H](C(=O)O)C3)cn2)c1COC(=O)N(C)C1CCCC1 (racemic) [Compound 81]		
0.05 to 0.3	Cc1nsc(-c2ccc(O[C@H]3CCC[C@H](C(=O)O)C3)cn2)c1COC(=O)N(C)C1CCCC1 (racemic) [Compound 83]		
< 0.05	Cc1nsc(-c2ccc(O[C@H]3CCC[C@H](C(=O)O)C3)c(C(F)(F)F)n2)c1COC(=O)N(C)C1CCCC1 (racemic) [Compound 84]		
0.05 to 0.3	Cc1nc(-c2c(C(F)(F)F)nn(C)c2COC(=O)N(C)C2CCCC2)ccc1O[C@H]1CCC[C@H](C(=O)O)C1 (racemic) [Compound 85]		
0.05 to 0.3	Cc1nc(-c2c(N)nn(C)c2COC(=O)N(C)C2CCCC2)ccc1O[C@H]1CCC[C@H](C(=O)O)C1 (racemic) [Compound 87]		
< 0.05	Cc1nc(-c2onc(C)c2COC(=O)N(C)C2CCCC2)ncc1O[C@H]1CCC[C@H](C(=O)O)C1 (racemic) [Compound 91, (+/−)-(1S,3S)-3-((2-(4-(((cyclopentyl(methyl)carbamoyl)oxy)methyl)-3-methylisoxazol-5-yl)-4-methylpyrimidin-5-yl)ox)cyclohexane-1-carboxylic Acid]	C (C: 0-30%)	
0.3 to 10	Cc1nc(-c2cnn(C)c2COC(=O)N(C)C2CCOC2)ccc1O[C@H]1CCC[C@H](C(=O)O)C1 (mixture of isomers) [Compound 93]	B (B: 30-50%)	
0.3 to 10	Cc1nc(-c2cnn(C)c2COC(=O)N(C)CC2COC2)ccc1O[C@H]1CCC[C@H](C(=O)O)C1 (racemic) [Compound 97]	C (C: 0-30%)	
0.3 to 10	Cc1nc(-c2cnn(C)c2COC(=O)N(C)CC2CCOC2)ccc1O[C@H]1CCC[C@H](C(=O)O)C1 (mixture of isomers) [Compound 98, (+/−)-(1S,3S)-3-((2-methyl-6-(1-methyl-5-(((methyl((tetrahydrofuran-3-yl)methyl)carbamoyl)oxy)methyl)-1H-pyrazol-4-yl)pyridin-3-yl)oxy)cyclohexane-1-carboxylic Acid]	C (C: 0-30%)	
< 0.05	Cc1onc(-c2cnc(O[C@H]3CCC[C@H](C(=O)O)C3)cn2)c1COC(=O)N(C)C1CCCC1 (racemic) [Compound 102]	A (A: 50-70%)	
0.3 to 10	CN(C(=O)OCc1c(-c2ccc(O[C@H]3CCC[C@H](C(=O)O)C3)c(OCCO)n2)cnn1C)C1CCC1 (racemic) [Compound 111]		
< 0.05	Cc1snc(-c2ccc(O[C@H]3CCC[C@H](C(=O)O)C3)c(C(F)(F)F)n2)c1COC(=O)N(C)C1CCCC1 [Compound 82]		

More lines, now with the values behind:

SMILES	IC50 ([1]; read-out: LPAR1 IC50) [µM]	Cell migration inhibition rate (%) [2]	IC50 ([1]; LPAR1 IC50 (μM)) [µM]
CN(C(=O)OCc1c(-c2ccc(C3CCC[C@H](C(=O)O)C3)cc2)cnn1C)C1CCCC1 (mixture of isomers) [Compound 73]	0.3 to 10		
Cc1nc(-c2cnn(C)c2COC(=O)N2CC3CCC(C2)O3)ccc1O[C@H]1CCC[C@H](C(=O)O)C1 (racemic) [Compound 65, (+/−)-(1R,3R)-3-((6-(5-(((8-oxa-3-azabicyclo[3.2.1]octane-3-carbonyl)oxy)methyl)-1-methyl-1H-pyrazol-4-yl)-2-methylpyridin-3-yl)oxy)cyclohexane-1-carboxylic Acid]	0.3 to 10	C (C: 0-30%)	
Cc1noc(-c2ccc(O[C@H]3CCC[C@H](C(=O)O)C3)cc2)c1OC(=O)N(C)C1CCCC1 (racemic) [Compound 69]			0.3 to 10
Cc1cnn(-c2ccc(O[C@H]3CCC[C@H](C(=O)O)C3)cc2)c1N(C)C(=O)OC1CCCC1 (racemic) [Compound 70]	0.3 to 10		
Cc1ccn(-c2ccc(O[C@H]3CCC[C@H](C(=O)O)C3)cc2)c1N(C)C(=O)OC1CCCC1 (racemic) [Compound 71]	0.3 to 10		
Cc1noc(-c2ccc(O[C@H]3CCC[C@H](C(=O)O)C3)c(F)c2)c1COC(=O)N(C)C1CCCC1 (racemic) [Compound 86]	< 0.05		
COc1nn(C)c(COC(=O)N(C)C2CCCC2)c1-c1ccc(O[C@H]2CCC[C@H](C(=O)O)C2)c(C)n1 (racemic) [Compound 88, (+/−)-(1S,3S)-3-((6-(5-(((cyclopentyl(methyl)carbamoyl)oxy)methyl)-3-methoxy-1-methyl-1H-pyrazol-4-yl)-2-methylpyridin-3-yl)oxy)cyclohexane-1-carboxylic Acid]	0.05 to 0.3	C (C: 0-30%)	
Cc1nc(-c2onc(C)c2COC(=O)N(C)C2CCCC2)cnc1O[C@H]1CCC[C@H](C(=O)O)C1 (racemic) [Compound 90]	< 0.05		
CN(C(=O)OCc1c(-c2cnc(O[C@H]3CCC[C@H](C(=O)O)C3)c(N)n2)cnn1C)C1CCCC1 (racemic) [Compound 94, (+/−)-(1S,3S)-3-((3-amino-5-(5-(((cyclopentyl(methyl)carbamoyl)oxy)methyl)-1-methyl-1H-pyrazol-4-yl)pyrazin-2-yl)oxy)cyclohexane-1-carboxylic Acid]	0.3 to 10	C (C: 0-30%)	
Cc1nc(-c2c(COC(=O)N(C)C3CCCC3)n(C)[nH]c2=O)ccc1O[C@H]1CCC[C@H](C(=O)O)C1 (racemic) [Compound 99]	0.3 to 10		
Cc1onc(-c2cnc(O[C@H]3CCC[C@H](C(=O)O)C3)c(F)n2)c1COC(=O)N(C)C1CCCC1 (racemic) [Compound 101]	< 0.05		
CN(C(=O)OCc1c(-c2cnc(O[C@H]3CCC[C@H](C(=O)O)C3)c(F)n2)cnn1C)C1CCCC1 (racemic) [Compound 103, (+/−)-(1S,3S)-3-((5-(5-(((cyclopentyl(methyl)carbamoyl)oxy)methyl)-1-methyl-1H-pyrazol-4-yl)-3-fluoropyrazin-2-yl)oxy)cyclohexane-1-carboxylic Acid]	< 0.05		
CN(C(=O)OCc1c(-c2cnc(O[C@H]3CCC[C@H](C(=O)O)C3)c(C#N)n2)cnn1C)C1CCCC1 (racemic) [Compound 104, (+/−)-(1S,3S)-3-((3-cyano-5-(5-(((cyclopentyl(methyl)carbamoyl)oxy)methyl)-1-methyl-1H-pyrazol-4-yl)pyrazin-2-yl)oxy)cyclohexane-1-carboxylic Acid]	< 0.05	C (C: 0-30%)	
CN(C(=O)OCc1c(-c2ccc(O[C@H]3CCC[C@H](C(=O)O)C3)c(N3CC(O)C3)n2)cnn1C)C1CCC1 (racemic) [Compound 107]	0.3 to 10		
CN(C(=O)OCc1cnccc1-c1ccc(O[C@H]2CCC[C@H](C(=O)O)C2)cc1)C1CCCC1 [Compound 75]			0.3 to 10
CN(CC1CCCC1)C(=O)OCc1c(-c2ccc(O[C@H]3CCC[C@H](C(=O)O)C3)c(C#N)n2)cnn1C [Compound 78]	0.05 to 0.3		
Cc1onc(-c2ccc(O[C@H]3CCC[C@H](C(=O)O)C3)c(C(F)(F)F)n2)c1COC(=O)N(C)C1CCCC1 [Compound 80]	< 0.05		
